From patent US20250214991A1 (Oncopia Therapeutics, Inc. d/b/a/ SK Life Science Labs, priority 2022, published 2025)

Columns and labels:
[1] = target: IKZF2 (Homo sapiens (Human), UniProt Q96SW2+Q9UKS7); test: In vitro IKZF2 HiBit Assay (HEK293T Flp-in-HiBiT cells); type: cell-based; details: HEK293T Flp-in-HiBiT cells, 6 hrs incubation; for DC50: read-out: IKZF2 HiBit DC50; for Dmax: HEK-293T, read-out: IKZF2 HiBit Dmax (%)
Description: In Vitro IKZF2 HiBit Assay
The HiBiT protein tagging system was applied to modified HEK293T Flp-in-HiBiT cells (polyclone) via a CRISPR/Cas9-mediated insertion of the HiBiT peptide tag (Promega™) to the N-terminus of the IKZF2 gene locus (Neon™ transfection system). Test and reference compounds are diluted from 1 mM at 3 folds for 11 doses. 25 nL of diluted compound is transfered to assay plates (Corning3570) using ECHO550, the final DMSO concentration @ 0.1%. The cells are seeded in 3000/25 μL/well to compound plates. It is then incubated for 6 hrs in TC incubator. The amount of Nano-Glo® HiBiT lytic reagent needed to perform the desired experiments is calculated. The Nano-Glo® HiBiT lytic reagent is brought to room temperature. The LgBiT protein is diluted to 1:100 and the Nano-Glo® HiBiT lytic substrate is diluted to 1:50 into an appropriate volume of room temperature Nano-Glo® HiBiT lytic buffer. 15 μL of the detection reagent (or without LgBiT) is dispensed to corresponding well according to the layout. The plate is then shaked for 10 mins at room temperature. After briefly centrifuge, the plate is read on Envision. At the indicated timepoints, the Nano-Glo® HiBiT lytic detection system (Promega™) was utilized for detecting bioluminescence of the HiBiT tag in treated cells: abundance of the tag is proportionate to the level of luminescence. Following normalization to DMSO, dose-response curves were plotted (GraphPad Prism) to determine the concentration points at which 50% of HiBiT-Helios degradation was achieved by each compound. The extent of degradation (range of luminescence) from the highest to lowest concentration points was calculated to determine the Dmax.
(§1) DC50, A: <1 nM; B: 1-10 nM; C: 10-100 nM; D: 100-1000 nM; E: 1000-10000 nM; F: >10,000 nM. Dmax, A: >80%; B: 60-80%; C: 40-60%; D: 20-40%; E: <20%.

[2] = target: IKZF1 (Homo sapiens (Human), UniProt Q13422+Q96SW2); test: In vitro IKZF1 HiBit Assay (HEK293T Flp-in-HiBiT-IKZF1 stable cell line); type: cell-based; details: HEK293T Flp-in-HiBiT-IKZF1 stable cell line, 6 hrs incubation; for DC50: read-out: IKZF1 HiBit DC50; for Dmax: HEK-293T, read-out: IKZF1 HiBit Dmax (%)
Description: In Vitro IKZF1 HiBit Assay
The HiBiT protein tagging system was applied to modified Cells: modified HEK293T Flp-in-HiBiT-IKZF1 stable cell line (polyclone) via a CRISPR/Cas9-mediated insertion of the HiBiT peptide tag (Promega™) to the N-terminus of the […] gene locus (Neon™ transfection system).
25 nL of diluted compound is transferred to assay plates (Corning3571) using ECHO550, the final DMSO concentration @ 0.1%. The cells are seeded in 3000/25 μL/well to compound plates. The plates are incubated for 6 hrs in TC incubator. The amount of Nano-Glo® HiBiT lytic reagent needed to perform the desired experiments is calculated. The Nano-Glo® HiBiT lytic reagent is brought to room temperature. The LgBiT protein is diluted to 1:100 and the Nano-Glo® HiBiT lytic substrate is brought to 1:50 into an appropriate volume of room temperature Nano-Glo® HiBiT lytic buffer. 15 μL of the detection reagent (or without LgBiT) is dispensed to corresponding well according to the layout. The plate is shaked for 10 mins at room temperature. After briefly centrifuge, the plateis read on Envision. At the indicated timepoints, the Nano-Glo® HiBiT lytic detection system (Promega™) was utilized for detecting bioluminescence of the HiBiT tag in treated cells: abundance of the tag is proportionate to the level of luminescence. Following normalization to DMSO, dose-response curves were plotted (GraphPad Prism) to determine the concentration points at which 50% of HiBiT-Ikaros degradation was achieved by each compound. The extent of degradation (range of luminescence) from the highest to lowest concentration points was calculated to determine the Dmax.
as §1

IKZF2, sequence (Q9UKS7 whole entry): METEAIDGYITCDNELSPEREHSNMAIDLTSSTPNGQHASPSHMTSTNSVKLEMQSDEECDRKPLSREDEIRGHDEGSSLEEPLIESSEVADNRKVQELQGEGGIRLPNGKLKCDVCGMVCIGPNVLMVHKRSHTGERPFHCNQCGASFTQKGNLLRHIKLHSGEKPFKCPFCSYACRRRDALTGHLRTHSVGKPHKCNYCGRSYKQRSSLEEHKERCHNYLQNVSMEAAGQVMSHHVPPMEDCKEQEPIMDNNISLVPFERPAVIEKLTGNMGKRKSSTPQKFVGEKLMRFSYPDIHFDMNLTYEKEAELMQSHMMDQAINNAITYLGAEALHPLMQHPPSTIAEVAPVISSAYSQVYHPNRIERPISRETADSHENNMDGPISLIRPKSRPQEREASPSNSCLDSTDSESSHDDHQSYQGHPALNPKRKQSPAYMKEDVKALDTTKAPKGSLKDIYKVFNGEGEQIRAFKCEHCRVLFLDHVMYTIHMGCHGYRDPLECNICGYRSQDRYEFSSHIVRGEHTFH
IKZF2, sequence (Q96SW2 whole entry): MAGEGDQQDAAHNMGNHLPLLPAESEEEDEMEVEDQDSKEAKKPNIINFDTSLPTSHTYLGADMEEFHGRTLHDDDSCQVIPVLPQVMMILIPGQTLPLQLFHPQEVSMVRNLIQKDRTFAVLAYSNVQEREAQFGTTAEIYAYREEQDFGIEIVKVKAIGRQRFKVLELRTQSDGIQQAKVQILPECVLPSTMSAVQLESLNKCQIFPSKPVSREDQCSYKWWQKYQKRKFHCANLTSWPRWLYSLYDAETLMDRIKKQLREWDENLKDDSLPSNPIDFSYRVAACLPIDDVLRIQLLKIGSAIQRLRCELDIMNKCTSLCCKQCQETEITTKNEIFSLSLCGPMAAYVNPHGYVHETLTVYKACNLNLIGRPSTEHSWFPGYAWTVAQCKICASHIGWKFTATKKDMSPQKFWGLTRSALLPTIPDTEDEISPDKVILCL
IKZF2, sequence (Q16531 2-1140 partner): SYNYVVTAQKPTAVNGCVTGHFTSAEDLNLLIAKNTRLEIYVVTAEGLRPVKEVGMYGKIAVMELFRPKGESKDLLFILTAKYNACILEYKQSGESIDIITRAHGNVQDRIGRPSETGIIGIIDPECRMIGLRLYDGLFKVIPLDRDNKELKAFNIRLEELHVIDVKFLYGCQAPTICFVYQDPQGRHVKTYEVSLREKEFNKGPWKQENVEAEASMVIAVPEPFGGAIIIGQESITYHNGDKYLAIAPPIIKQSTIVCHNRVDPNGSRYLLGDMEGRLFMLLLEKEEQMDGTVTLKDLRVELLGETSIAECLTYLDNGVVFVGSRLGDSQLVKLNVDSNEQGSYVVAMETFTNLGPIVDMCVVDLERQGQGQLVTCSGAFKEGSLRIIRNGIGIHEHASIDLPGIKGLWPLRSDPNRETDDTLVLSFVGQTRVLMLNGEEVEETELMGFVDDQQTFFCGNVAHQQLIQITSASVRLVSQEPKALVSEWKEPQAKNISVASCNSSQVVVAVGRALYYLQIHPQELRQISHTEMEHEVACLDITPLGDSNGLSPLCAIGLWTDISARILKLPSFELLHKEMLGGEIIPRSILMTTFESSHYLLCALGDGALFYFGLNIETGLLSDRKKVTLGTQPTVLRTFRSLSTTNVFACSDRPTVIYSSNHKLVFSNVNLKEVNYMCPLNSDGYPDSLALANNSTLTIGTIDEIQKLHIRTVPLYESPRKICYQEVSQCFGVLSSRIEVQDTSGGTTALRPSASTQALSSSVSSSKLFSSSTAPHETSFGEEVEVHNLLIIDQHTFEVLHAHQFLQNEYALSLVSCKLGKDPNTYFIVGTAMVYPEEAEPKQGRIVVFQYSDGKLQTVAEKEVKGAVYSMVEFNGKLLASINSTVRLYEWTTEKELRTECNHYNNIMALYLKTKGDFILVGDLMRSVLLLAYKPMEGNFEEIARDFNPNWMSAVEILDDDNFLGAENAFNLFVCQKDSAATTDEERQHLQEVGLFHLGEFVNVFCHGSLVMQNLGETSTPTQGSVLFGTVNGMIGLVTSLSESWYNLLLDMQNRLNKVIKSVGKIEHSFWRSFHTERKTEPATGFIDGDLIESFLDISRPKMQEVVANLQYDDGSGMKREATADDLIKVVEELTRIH
IKZF1, sequence (Q13422 whole entry): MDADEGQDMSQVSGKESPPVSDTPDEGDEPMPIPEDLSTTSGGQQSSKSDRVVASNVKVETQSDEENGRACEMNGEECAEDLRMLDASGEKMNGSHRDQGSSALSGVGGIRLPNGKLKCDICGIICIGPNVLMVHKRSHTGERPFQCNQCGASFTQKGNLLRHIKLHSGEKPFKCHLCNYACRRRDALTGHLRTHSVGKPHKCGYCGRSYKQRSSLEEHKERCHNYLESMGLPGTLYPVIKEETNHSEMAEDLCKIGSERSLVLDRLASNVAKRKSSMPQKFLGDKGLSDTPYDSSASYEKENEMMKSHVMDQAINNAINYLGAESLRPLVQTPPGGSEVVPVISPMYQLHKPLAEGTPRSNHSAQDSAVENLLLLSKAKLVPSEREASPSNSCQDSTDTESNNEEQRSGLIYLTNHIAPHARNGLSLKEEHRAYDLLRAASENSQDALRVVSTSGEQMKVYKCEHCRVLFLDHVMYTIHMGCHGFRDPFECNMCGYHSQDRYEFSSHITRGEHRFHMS
IKZF1, sequence (Q96SW2 whole entry): as the sequence (Q96SW2 whole entry) above
IKZF1, sequence (Q16531 2-1140 partner): as the sequence (Q16531 2-1140 partner) above

SMILES	DC50 [1] [µM]	Dmax [1] [%]	DC50 [2] [µM]	Dmax [2] [%]
CO[C@H]1C[C@@H](Oc2ccnc3c(CN4CCCC4)cc(-c4ccc5c(c4)CN(C4CCC(=O)NC4=O)C5=O)nc23)C1 (some centres unmarked) [Example 281, 3-(5-(8-((1s,3s)-3-methoxycyclobutoxy)-4-(pyrrolidin-1-ylmethyl)-1,5-naphthyridin-2-yl)-1-oxoisoindolin-2-yl) piperidine-2,6-dione]	0.01 to 0.1	60 to 80	> 10	< 20
CC(=O)N1CC(n2ccc3c(CN4CCCC4)cc(-c4ccc5c(c4)CN(C4CCC(=O)NC4=O)C5=O)nc32)C1 (centres unmarked) [Example 256, 3-(5-(1-(1-acetylazetidin-3-yl)-4-(pyrrolidin-1-ylmethyl)-1H-pyrrolo[2,3-b]pyridin-6-yl)-1-oxoisoindolin-2-yl) piperidine-2,6-dione]	0.01 to 0.1	> 80	> 10	< 20
O=C1CCC(N2Cc3cc(-c4cc(CN5CC(O)C5)c5ccn(C6CC6)c5n4)ccc3C2=O)C(=O)N1 (centres unmarked) [Example 135, 3-(5-(1-cyclopropyl-4-((3-hydroxyazetidin-1-yl)methyl)-1H-pyrrolo[2,3-b]pyridin-6-yl)-1-oxoisoindolin-2-yl) piperidine-2,6-dione]	0.001 to 0.01	> 80	> 10	< 20
O=C1CCC(N2Cc3cc(-c4cc(CN5CCCC5)c5cccc(C6CCC6)c5n4)ccc3C2=O)C(=O)N1 (centres unmarked) [Example 241, 3-(5-(8-cyclobutyl-4-(pyrrolidin-1-ylmethyl)quinolin-2-yl)-1-oxoisoindolin-2-yl) piperidine-2,6-dione]	0.01 to 0.1	40 to 60	> 10	< 20
CS(=O)(=O)CCn1ccc2c(CN3CCCC3)cc(-c3ccc4c(c3)CN(C3CCC(=O)NC3=O)C4=O)nc21 (centres unmarked) [Example 136, 3-(5-(1-(2-(methylsulfonyl)ethyl)-4-(pyrrolidin-1-ylmethyl)-1H-pyrrolo[2,3-b]pyridin-6-yl)-1-oxoisoindolin-2-yl) piperidine-2,6-dione]	0.01 to 0.1	20 to 40	> 10	< 20
O=C1CCC(N2Cc3cc(-c4cc(CN5CCCC5)c5c(C(F)(F)F)n[nH]c5n4)ccc3C2=O)C(=O)N1 (centres unmarked) [Example 134, 3-(1-oxo-5-(4-(pyrrolidin-1-ylmethyl)-3-(trifluoromethyl)-1H-pyrazolo[3,4-b]pyridin-6-yl)isoindolin-2-yl) piperidine-2,6-dione]	0.001 to 0.01	> 80	> 10	< 20
CC(C)Nc1n[nH]c2c(CN3CC4(COC4)C3)cc(-c3ccc4c(c3F)CN(C3CCC(=O)NC3=O)C4=O)nc12 (centres unmarked) [Example 287, 3-(5-(7-((2-oxa-6-azaspiro[3.3]heptan-6-yl)methyl)-3-(isopropylamino)-1H-pyrazolo[4,3-b]pyridin-5-yl)-4-fluoro-1-oxoisoindolin-2-yl) piperidine-2,6-dione]	0.01 to 0.1	60 to 80	0.1 to 1	20 to 40
CC(C)Nc1n[nH]c2c(CN3CCCC3)cc(-c3ccc4c(c3)CN(C35CC(C3)C(=O)NC5=O)C4=O)nc12 [Example 298, 1-(5-(3-(isopropylamino)-7-(pyrrolidin-1-ylmethyl)-1H-pyrazolo[4,3-b]pyridin-5-yl)-1-oxoisoindolin-2-yl)-3-azabicyclo[3.1.1]heptane-2,4-dione]	< 0.001	20 to 40	> 10	< 20
CC(Oc1ccnc2c(CN3CCCC3)cc(-c3ccc4c(c3)CN(C3CCC(=O)NC3=O)C4=O)nc12)C(F)(F)F (centres unmarked) [Example 279, 3-(1-oxo-5-(4-(pyrrolidin-1-ylmethyl)-8-((1,1,1-trifluoropropan-2-yl)oxy)-1,5-naphthyridin-2-yl)isoindolin-2-yl) piperidine-2,6-dione]	0.001 to 0.01	60 to 80	> 10	< 20
O=C1CCC(N2Cc3cc(-c4cc(CN5CCCC5C(F)F)c5ccn(C6COC6)c5n4)ccc3C2=O)C(=O)N1 (centres unmarked) [Example 252, 3-(5-(4-((2-(difluoromethyl)pyrrolidin-1-yl)methyl)-1-(oxetan-3-yl)-1H-pyrrolo[2,3-b]pyridin-6-yl)-1-oxoisoindolin-2-yl) piperidine-2,6-dione]	0.01 to 0.1	40 to 60	> 10	< 20

Now from value to molecule:

DC50 [1] [µM]	Dmax [1] [%]	DC50 [2] [µM]	Dmax [2] [%]	SMILES
0.01 to 0.1	40 to 60	> 10	< 20	O=C1CCC(N2Cc3cc(-c4cc(CN5CCCC5)c5nccc(NC6CC6)c5n4)ccc3C2=O)C(=O)N1 (centres unmarked) [Example 244, 3-(5-(8-(cyclopropylamino)-4-(pyrrolidin-1-ylmethyl)-1,5-naphthyridin-2-yl)-1-oxoisoindolin-2-yl) piperidine-2,6-dione]
0.001 to 0.01	60 to 80	> 10	< 20	CCc1c(-c2ccc3c(c2)CN(C2CCC(=O)NC2=O)C3=O)nc2c(ccn2C2COC2)c1CN1CCCC1 (centres unmarked) [Example 262, 3-(5-(5-ethyl-1-(oxetan-3-yl)-4-(pyrrolidin-1-ylmethyl)-1H-pyrrolo[2,3-b]pyridin-6-yl)-1-oxoisoindolin-2-yl) piperidine-2,6-dione]
> 10	< 20	> 10	< 20	Cc1cc(-c2ccc3c(c2)CN(C2CCC(=O)NC2=O)C3=O)nc2c1nc(CN1CCCC1)n2C1COC1 (centres unmarked) [Example 259, 3-(5-(7-methyl-3-(oxetan-3-yl)-2-(pyrrolidin-1-ylmethyl)-3H-imidazo[4,5-b]pyridin-5-yl)-1-oxoisoindolin-2-yl) piperidine-2,6-dione]
0.001 to 0.01	> 80	0.01 to 0.1	40 to 60	Cn1nc(N)c2nc(-c3ccc4c(c3)CN(C3CCC(=O)NC3=O)C4=O)cc(CN3CCCC3)c21 (centres unmarked) [Example 183, 3-(5-(3-amino-1-methyl-7-(pyrrolidin-1-ylmethyl)-1H-pyrazolo[4,3-b]pyridin-5-yl)-1-oxoisoindolin-2-yl) piperidine-2,6-dione]
0.01 to 0.1	40 to 60	> 10	< 20	Cc1cc(-c2ccc3c(c2)CN(C2CCC(=O)NC2=O)C3=O)nc2oc(CN3CCCC3)nc12 (centres unmarked) [Example 198, 3-(5-(7-methyl-2-(pyrrolidin-1-ylmethyl)oxazolo [5,4-b]pyridin-5-yl)-1-oxoisoindolin-2-yl) piperidine-2,6-dione]
0.01 to 0.1	60 to 80	> 10	< 20	Cc1nc2c(CN3CCCC3)cc(-c3ccc4c(c3)CN(C3CCC(=O)NC3=O)C4=O)nc2n1C1COC1 (centres unmarked) [Example 258, 3-(5-(2-methyl-3-(oxetan-3-yl)-7-(pyrrolidin-1-ylmethyl)-3H-imidazo[4,5-b]pyridin-5-yl)-1-oxoisoindolin-2-yl) piperidine-2,6-dione]
0.01 to 0.1	40 to 60	> 10	< 20	O=C1CCC(N2Cc3cc(-c4cc(CN5CCCC5)c5nccc(C6CCC6)c5n4)ccc3C2=O)C(=O)N1 (centres unmarked) [Example 247, 3-(5-(8-cyclobutyl-4-(pyrrolidin-1-ylmethyl)-1,5-naphthyridin-2-yl)-1-oxoisoindolin-2-yl) piperidine-2,6-dione]
